A short description of data set [1]: Biodistribution of ^111In-labelled fragments in CD1 nu/nu mice without tumours. Particulars: CD1 nu/nu, mouse, iv, 100 kBq, total radioactivity. Type of data set: in vivo, mouse. Here is the method: (§1) Biodistribution of ^111In-PSI-CLNOD1, ^111In-PSI-CLNOD2, ^111In-PSI-CLNOD3 and ^111In-Ex4NOD40 were performed in CD 1 nu/nu mice with tumour xenografts that were prepared as previously described. Six week-old female CD1 nu/nu mice were subcutaneously inoculated in both shoulder regions with 8 x 10^6 CHL-GLP-1R positive cells suspended in PBS pH 7.4. After 4 weeks, the mice were randomly divided into groups of four mice. For the ^111In-labelled fragments mice without tumours were used. The mice were injected with approximately 100 kBq (1–5 pmol) of the respective ^111In-labelled peptide diluted in PBS pH 7.4 with 0.1% BSA via the tail vein and sacrificed after 4 h by CO2 asphyxiation. […] Blood, heart, lungs, spleen, kidneys, pancreas, stomach, intestine, liver, muscle, bone and tumour were removed, weighted and activity determined in a γ-counter (Packard Cobra II Auto Gamma, Perkin Elmer, Switzerland). The percentage of injected activity per gram tissue (%iA/g) was calculated for each sample. The statistical significance was determined using the two-way ANOVA test and corrected for multiple comparisons using Tukey’s honest significance test. The data was log-transformed to account for the variance in the groups.

In the next data set the test system is CD1 nu/nu mice. Described as above. The following applies: ^111In-labelled fragment ~100 kBq i.v. tail vein, mice without tumours, after 4 h. Type of data set: in vivo, mouse. Here is the method:
as §1

The next data set concerns meprin β. Nature of the data set: recombinant meprin β in meprin assay buffer (50 mM Tris-HCl pH 7.5 + 1 mM MgCl2 + 1 mM CaCl2) and 1 M Tris pH 7.5. The following applies: 37°C, up to 60 min.
The subject of another data set is meprin α. Nature of the data set: recombinant meprin α in meprin assay buffer (50 mM Tris-HCl pH 7.5 + 1 mM MgCl2 + 1 mM CaCl2) and 1 M Tris pH 7.5. Particulars: 37°C, up to 60 min.
[2] abbreviates: in vivo, Biodistribution of fragment, Blood.
[3] abbreviates: in vivo, Biodistribution of fragment, Bone.
[4] abbreviates: in vivo, Biodistribution of fragment, Heart.
[5] abbreviates: in vivo, Biodistribution of fragment, Intestines.
Setting [6] is: in vivo, Biodistribution of fragment, Kidneys.
The mark [7] stands for this setting: in vivo, Biodistribution of fragment, Liver.
Setting [8] is: in vivo, Biodistribution of fragment, Lungs.
Where [9] appears, read: in vivo, Biodistribution of fragment, Muscle.
The mark [10] stands for this setting: in vivo, Biodistribution of fragment, Pancreas.
[11] abbreviates: in vivo, Biodistribution of fragment, Spleen.
The mark [12] stands for this setting: in vivo, Biodistribution of fragment, Stomach.
Setting [13] is: in vivo, activity retained in the kidneys at the end of the experiment.
The mark [14] stands for this setting: blood, ^111In-labelled fragment ~100 kBq i.v. tail vein, mice without tumours, after 4 h, read-out: Biodistribution of fragment, Blood.
[15] abbreviates: intestines, ^111In-labelled fragment ~100 kBq i.v. tail vein, mice without tumours, after 4 h, read-out: Biodistribution of fragment, Intestines.
[16] abbreviates: kidneys, ^111In-labelled fragment ~100 kBq i.v. tail vein, mice without tumours, after 4 h, read-out: Biodistribution of fragment, Kidneys.
Where [17] appears, read: kidneys, ^111In-labelled fragments, mice without tumours, 4 h after injection, summary in text of S3 Table, read-out: activity retained in the kidneys at the end of the experiment.
Where [18] appears, read: liver, ^111In-labelled fragment ~100 kBq i.v. tail vein, mice without tumours, after 4 h, read-out: Biodistribution of fragment, Liver.
[19] abbreviates: lungs, ^111In-labelled fragment ~100 kBq i.v. tail vein, mice without tumours, after 4 h, read-out: Biodistribution of fragment, Lungs.
The mark [20] stands for this setting: spleen, ^111In-labelled fragment ~100 kBq i.v. tail vein, mice without tumours, after 4 h, read-out: Biodistribution of fragment, Spleen.
The mark [21] stands for this setting: stomach, ^111In-labelled fragment ~100 kBq i.v. tail vein, mice without tumours, after 4 h, read-out: Biodistribution of fragment, Stomach.

Where two headings read alike, the source gives them in different places. Where a SMILES comes first, the peptide text is derived from it. The star is where a group is joined. NODAGA = O=C(O)CN1CCN(CC(=O)O)CCN(C(CCC(=O)*)C(=O)O)CC1

With `NC(=O)[C@H](CCCCNC(=O)CCC(C(=O)O)N1CCN(CC(=O)O)CCN(CC(=O)O)CC1)NC(=O)[C@H](CO)NC(=O)[C@@H]1CCCN1C(=O)[C@@H]1CCCN1C(=O)[C@@H]1CCCN1C(=O)[C@@H](N)CCC(=O)O` (stereo partly drawn) [CL3-F2] (H-EPPPSK(NODAGA)-NH2), the tissue uptake at 4 h in data set [1] (setting [2]) was determined as 0.02 %ID/g; in data set [1] (setting [3]) it was 0.21 %ID/g; in data set [1] (setting [4]), 0.01 %ID/g; in data set [1] (setting [5]), 0.1 %ID/g; in data set [1] (setting [6]), 2.22 %ID/g; in data set [1] (setting [7]), 0.07 %ID/g. Also, the tissue uptake at 4 h in data set [1] (setting [8]) is 0.04 %ID/g; in data set [1] (setting [9]) it was 0.02 %ID/g; in data set [1] (setting [10]) it was 0.01 %ID/g; in data set [1] (setting [11]), 0.03 %ID/g; in data set [1] (setting [12]), 0.02 %ID/g; in data set [1] (setting [13]), less than 4 %ID/g.
`CC(C)[C@H](NC(=O)[C@H](C)NC(=O)[C@H](CCC(=O)O)NC(=O)[C@@H](N)CCC(=O)O)C(=O)N[C@@H](CCCCNC(=O)CCC(C(=O)O)N1CCN(CC(=O)O)CCN(CC(=O)O)CC1)C(N)=O` (stereo partly drawn) [CL1-F1] (H-EEAVK(NODAGA)-NH2): the tissue uptake at 4 h turned out to be 0.01 %ID/g in data set [1] (setting [2]); 0.05 %ID/g in data set [1] (setting [3]); 0.01 %ID/g in data set [1] (setting [4]); 0.22 %ID/g in data set [1] (setting [5]); 2.28 %ID/g in data set [1] (setting [6]); 0.07 %ID/g in data set [1] (setting [7]). Besides, the tissue uptake at 4 h is 0.03 %ID/g in data set [1] (setting [8]); 0.01 %ID/g in data set [1] (setting [10]); 0.03 %ID/g in data set [1] (setting [11]); 0.02 %ID/g in data set [1] (setting [12]); less than 4 %ID/g in data set [1] (setting [13]).
As to `NC(=O)[C@H](CCCCNC(=O)CCC(C(=O)O)N1CCN(CC(=O)O)CCN(CC(=O)O)CC1)NC(=O)[C@H](CO)NC(=O)[C@@H]1CCCN1C(=O)[C@@H]1CCCN1C(=O)[C@@H]1CCCN1C(=O)[C@H](CCC(=O)O)NC(=O)[C@@H](N)CC(=O)O` (stereo partly drawn) [CL3-F1] (H-DEPPPSK(NODAGA)-NH2), the tissue uptake at 4 h is 0.01 %ID/g in data set [1] (setting [14]); 0.04 %ID/g in data set [1] (setting [15]); 1.71 %ID/g in data set [1] (setting [16]); less than 4 %ID/g in data set [1] (setting [17]); 0.04 %ID/g in data set [1] (setting [18]); 0.02 %ID/g in data set [1] (setting [19]). Besides, the tissue uptake at 4 h in data set [1] (setting [20]) and in data set [1] (setting [21]) was 0.01 %ID/g each time. In addition, the “Biodistribution of fragment, Heart” value in the data set on CD1 nu/nu mice turned out to be 0.00 %iA/g. Further, the “Biodistribution of fragment, Muscle” value in the data set with CD1 nu/nu mice is reported as -0.01 %iA/g. Further, the “Biodistribution of fragment, Pancreas” value in the data set on CD1 nu/nu mice was found to be 0.00 %iA/g.
On to `NC(=O)[C@@H](N)CCCCNC(=O)CCC(C(=O)O)N1CCN(CC(=O)O)CCN(CC(=O)O)CC1` (stereo partly drawn) [CL1-F3], for which the tissue uptake at 4 h was found to be 0.07 %ID/g in data set [1] (setting [3]); 0.01 %ID/g in data set [1] (setting [4]); 0.09 %ID/g in data set [1] (setting [5]); 1.72 %ID/g in data set [1] (setting [6]); 0.08 %ID/g in data set [1] (setting [7]); 0.03 %ID/g in data set [1] (setting [8]). Further, the tissue uptake at 4 h in data set [1] (setting [10]) was 0.01 %ID/g; in data set [1] (setting [11]), 0.03 %ID/g; in data set [1] (setting [12]), 0.02 %ID/g; in data set [1] (setting [13]), less than 4 %ID/g.
Take “HGEGTFTSDLSKQNleEEEAVRLFIEWLKNGGPSSGDYMGWMDFK(NODAGA)-NH2”: the cleaved bond result with meprin β was “G-D and M-D”; with meprin α, “M-D and G-G”. Also, in the data set with meprin α, the fragment found entry is given as “IEWL-DFK(natIn-NODAGA)-NH2”.
Turning to `CC(C)[C@H](NC(=O)[C@H](C)NC(=O)[C@@H](N)CCC(=O)O)C(=O)N[C@@H](CCCCNC(=O)CCC(C(=O)O)N1CCN(CC(=O)O)CCN(CC(=O)O)CC1)C(N)=O` (stereo partly drawn) [CL1-F2] (H-EAVK(NODAGA)-NH2), the tissue uptake at 4 h in data set [1] (setting [2]) is 0.01 %ID/g; in data set [1] (setting [3]) it was 0.06 %ID/g; in data set [1] (setting [4]), 0.02 %ID/g; in data set [1] (setting [5]), 0.1 %ID/g; in data set [1] (setting [6]), 2.97 %ID/g; in data set [1] (setting [7]) it was 0.08 %ID/g. In addition, the tissue uptake at 4 h was 0.04 %ID/g in data set [1] (setting [8]); 0.01 %ID/g in data set [1] (setting [10]); 0.03 %ID/g in data set [1] (setting [11]); 0.02 %ID/g in data set [1] (setting [12]); less than 4 %ID/g in data set [1] (setting [13]).
With `CSCC[C@H](NC(=O)[C@H](Cc1ccc(O)cc1)NC(=O)[C@@H](N)CC(=O)O)C(=O)NCC(=O)N[C@@H](Cc1c[nH]c2ccccc12)C(=O)N[C@@H](CCSC)C(=O)N[C@@H](CC(=O)O)C(=O)N[C@@H](Cc1ccccc1)C(=O)N[C@@H](CCCCNC(=O)CCC(C(=O)O)N1CCN(CC(=O)O)CCN(CC(=O)O)CC1)C(N)=O` (stereo partly drawn) [CL2-F1], the tissue uptake at 4 h was 0.02 %ID/g in data set [1] (setting [14]); 0.06 %ID/g in data set [1] (bone, ^111In-labelled fragment ~100 kBq i.v. tail vein, mice without tumours, after 4 h, read-out: Biodistribution of fragment, Bone); 0.02 %ID/g in data set [1] (heart, ^111In-labelled fragment ~100 kBq i.v. tail vein, mice without tumours, after 4 h, read-out: Biodistribution of fragment, Heart); 0.15 %ID/g in data set [1] (setting [15]); 2.5 %ID/g in data set [1] (setting [16]); less than 4 %ID/g in data set [1] (setting [17]). For the same molecule, the tissue uptake at 4 h in data set [1] (setting [18]) was 0.17 %ID/g; in data set [1] (setting [19]), 0.04 %ID/g; in data set [1] (pancreas, ^111In-labelled fragment ~100 kBq i.v. tail vein, mice without tumours, after 4 h, read-out: Biodistribution of fragment, Pancreas) it was 0.02 %ID/g; in data set [1] (setting [20]), 0.07 %ID/g; in data set [1] (setting [21]), 0.04 %ID/g. Besides, the “Biodistribution of fragment, Muscle” value with CD1 nu/nu mice is recorded as 0.00 %iA/g.
Turning to `NC(=O)[C@H](CCCCNC(=O)CCC(C(=O)O)N1CCN(CC(=O)O)CCN(CC(=O)O)CC1)NC(=O)[C@H](Cc1ccccc1)NC(=O)[C@@H](N)CC(=O)O` (stereo partly drawn) [CL2-F2], the tissue uptake at 4 h in data set [1] (setting [2]) worked out at 0.01 %ID/g; in data set [1] (setting [3]), 0.01 %ID/g; in data set [1] (setting [4]) it was 0.01 %ID/g; in data set [1] (setting [5]) it was 0.14 %ID/g; in data set [1] (setting [6]), 2.11 %ID/g; in data set [1] (setting [7]) it was 0.11 %ID/g. For the same molecule, the tissue uptake at 4 h was 0.03 %ID/g in data set [1] (setting [8]); 0.01 %ID/g in data set [1] (setting [9]); 0.02 %ID/g in data set [1] (setting [10]); 0.04 %ID/g in data set [1] (setting [11]); 0.03 %ID/g in data set [1] (setting [12]); less than 4 %ID/g in data set [1] (setting [13]).
With “HGEGTFTSDLSKQNleEEEAVRLFIEWLKNGGPSSGQNleEEEAVK(NODAGA)-NH2”, the cleaved bond result with meprin β was “Nle-E and E-E and V-K(^natIn-NODAGA)”. The fragment found entry with meprin α is listed as “IEW-AVK(natIn-NODAGA)-NH2”.
Regarding “HGEGTFTSDLSKQNleEEEAVRLFIEWLKNGGPSEDEPPPSK(NODAGA)-NH2”, the cleaved bond result in the data set with meprin β is “E-D and D-E”; in the data set on meprin α it was “D-E”. Besides, the fragment found entry in the data set on meprin α is “IEW –K(natIn-NODAGA)”.

Source of the values: PMC4391719 (PLoS ONE, 2015).
